Measured values: PMC8330735 (Journal of Enzyme Inhibition and Medicinal Chemistry, 2021)

Experiments:
ovine COX-1 = molecular target: T1, ovine COX-1 (Ovis aries, UniProt P05979); assay: In vitro COX-1 inhibitory assay (colorimetric Cayman kit)
T1 sequence (P05979 25-600): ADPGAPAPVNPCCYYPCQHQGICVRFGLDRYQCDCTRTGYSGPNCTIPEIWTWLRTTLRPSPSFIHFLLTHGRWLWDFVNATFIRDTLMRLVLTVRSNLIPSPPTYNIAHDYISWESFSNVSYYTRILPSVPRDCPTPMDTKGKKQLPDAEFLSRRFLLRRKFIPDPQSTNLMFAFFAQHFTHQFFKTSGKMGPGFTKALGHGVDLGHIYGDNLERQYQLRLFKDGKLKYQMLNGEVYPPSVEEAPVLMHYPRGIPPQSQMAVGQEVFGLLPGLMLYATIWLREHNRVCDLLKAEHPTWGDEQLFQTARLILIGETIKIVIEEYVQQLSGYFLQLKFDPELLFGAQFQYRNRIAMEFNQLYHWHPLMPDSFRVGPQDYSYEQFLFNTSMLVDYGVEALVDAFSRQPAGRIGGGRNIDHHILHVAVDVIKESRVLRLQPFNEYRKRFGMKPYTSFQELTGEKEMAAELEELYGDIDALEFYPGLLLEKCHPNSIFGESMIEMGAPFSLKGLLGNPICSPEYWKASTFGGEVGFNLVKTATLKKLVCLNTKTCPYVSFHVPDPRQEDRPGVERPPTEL
Procedure: (§3) All the newly synthesised compounds were tested for their ability to inhibit COX-1 and COX-2 enzymes using a screening assay method.

[1] = system: ROS production in LPS-activated RAW 264.7 macrophages; assay: ROS production in LPS-activated RAW 264.7 macrophages (DCFH-DA); format: cell-based; conditions: Mus musculus, RAW264.7; LPS 1 µg/mL activated RAW 264.7
Procedure: HCA7 colorectal cancer cell line was obtained from Sigma. […] Louis, MO) containing 10% heat-inactivated foetal bovine serum (HI-FBS) (Gibco, USA), 100 μg/mL streptomycin (Invitrogen, USA), and […] penicillin (Invitrogen, USA)[40]. HCA7 and RAW 264.7 cells were cultured in Dulbecco's minimal essential media (DMEM, Invitrogen) containing 10% HI-FBS, sodium pyruvate (1 mM), penicillin ([…]), and streptomycin (100 mg/m)[41]^,[42]. […] The cells were cultured, incubated with the different test compounds, and activated with LPS (1 µg/mL) as detailed above. […] IC50 values were calculated from the dose–response curves.

HCT116 cells = assay: MTS cell viability assay HCT116; format: cell-based; conditions: Homo sapiens, HCT-116, 48 h, cell line scarcely expressing COX-2
Procedure: (§1) Human colorectal cancer cell lines, HCT116 and HT29, and RAW 264.7 macrophages were obtained from ATCC (Manassas, VA). HCA7 colorectal cancer cell line was obtained from Sigma. HT29 and HCT116 cells were cultured in McCoy's 5 A medium (Sigma Aldrich, St. Louis, MO) containing 10% heat-inactivated foetal bovine serum (HI-FBS) (Gibco, USA), 100 μg/mL streptomycin (Invitrogen, USA), and […] penicillin (Invitrogen, USA)[40]. HCA7 and RAW 264.7 cells were cultured in Dulbecco's minimal essential media (DMEM, Invitrogen) containing 10% HI-FBS, sodium pyruvate (1 mM), penicillin ([…]), and streptomycin (100 mg/m)[41]^,[42].
(§2) Cells were cultured in 96‐well plates for 48 h and then treated with serum-free media containing different concentrations of the tested compounds (12.5, 25, 50, 100 and 150 µM). After 48 h., MTS reagent (Promega) was added as directed by the manufacturer, and then, the absorbance was measured at 495 nm. The absorbance is proportional to the number of viable cells. IC50 was calculated from the dose-response curves as described previously[45] using GraphPad Prism 8 software (GraphPad Software, San Diego, CA).

HT29 cells = assay: MTS cell viability assay HT29; format: cell-based; conditions: Homo sapiens, HT-29, 48 h, cell line moderately expressing COX-2
Procedure: as §1, §2

[2] = system: carrageenan-induced rat paw oedema; assay: Carrageenan-induced rat paw oedema test; format: in vivo; conditions: compounds and celecoxib 50 mg/kg, ibuprofen and indomethacin 20 mg/kg; for Mean oedema thickness 1h: 1 h after carrageenan; for Mean oedema thickness 1h / Mean oedema thickness 2h / Mean oedema thickness 3h / Mean oedema thickness 4h / Mean oedema thickness 5h / Mean oedema thickness 24h / Mean oedema thickness 0h: mean ± SEM, n = 5; for Mean oedema thickness 2h: 2 h after carrageenan; for Mean oedema thickness 3h: 3 h after carrageenan; for Mean oedema thickness 4h: 4 h after carrageenan; for Mean oedema thickness 5h: 5 h after carrageenan; for Mean oedema thickness 24h: 24 h after carrageenan; for Mean oedema thickness 0h: before carrageenan (0 h); for Average oedema inhibition%: from area under the curve of all time points
Procedure: The rats were divided into nine groups (n = 5/group). All tested compounds were suspended in 1% Tween-80. Group 1, controls, were given the vehicle (1% Tween80, 10 ml/kg). […] The rats were given the drugs 1 h before the injection of carrageenan solution (1% in 0.9% NaCl, 0.1 ml) (Sigma Aldrich, USA) in the sub-planter tissue of the right hind paw. The paw thickness (mm) was measured using a calliper before (0 h) and after carrageenan injection at 1, 2, 3, 4, 5 and 24 h. The inhibition of oedema thickness was calculated using the following formula (control– drug/control) × 100.

[3] = system: NO production in LPS-activated RAW 264.7 macrophages; assay: NO production in LPS-activated RAW 264.7 macrophages (DAF-FM); format: cell-based; conditions: Mus musculus, RAW264.7; LPS 1 µg/mL activated RAW 264.7
Procedure: HCA7 colorectal cancer cell line was obtained from Sigma. […] Louis, MO) containing 10% heat-inactivated foetal bovine serum (HI-FBS) (Gibco, USA), 100 μg/mL streptomycin (Invitrogen, USA), and […] penicillin (Invitrogen, USA)[40]. HCA7 and RAW 264.7 cells were cultured in Dulbecco's minimal essential media (DMEM, Invitrogen) containing 10% HI-FBS, sodium pyruvate (1 mM), penicillin ([…]), and streptomycin (100 mg/m)[41]^,[42]. […] Molecular Probes, USA). Briefly, RAW 264.7 cells were cultured in black 96-well plates (200,000 cells/mL, 100 µl/well) for 24 h. […] The fluorescence intensity, which is directly proportional to NO levels, was quantified, as detailed in our previous study. IC50 values were calculated from the dose–response curves.

HCA7 cells = assay: MTS cell viability assay HCA7; format: cell-based; conditions: Homo sapiens, HCA-7, 48 h, cell line highly expressing COX-2
Procedure: as §1, §2

[4] = system: stomach ulceration in rats; assay: Gastric acute ulcerogenic activity; conditions: rat, n = 5; for Ulcer Index (UI): UI = UN + US + UP×10^−1
Procedure: The rats from the previous experiment were fasted for 12 h., followed by the administration of additional doses of the selected compounds or the two references for two consecutive days. Six hrs after the last treatment, the animals were sacrificed, and their stomachs were removed, washed with saline solution (0.9%) and examined for ulceration using a magnifying lens. The ulcer scores were estimated according to the method prescribed by Kulkarni and as detailed in our previous studies[36–38]. The following scores were individually assigned to each lesion: normal coloured stomach, 0; red colouration, 0.5; spot ulcers, 1; haemorrhagic streaks, 1.5; ulcer >3 but <5 mm, 2; and ulcers >5 mm, 3.

human recombinant COX-2 = molecular target: T2, human recombinant COX-2 (Homo sapiens, UniProt P35354); assay: In vitro COX-2 inhibitory assay (colorimetric Cayman kit); conditions: for Selectivity Index (SI): COX-1 IC50/COX-2 IC50
T2 sequence (P35354 18-604): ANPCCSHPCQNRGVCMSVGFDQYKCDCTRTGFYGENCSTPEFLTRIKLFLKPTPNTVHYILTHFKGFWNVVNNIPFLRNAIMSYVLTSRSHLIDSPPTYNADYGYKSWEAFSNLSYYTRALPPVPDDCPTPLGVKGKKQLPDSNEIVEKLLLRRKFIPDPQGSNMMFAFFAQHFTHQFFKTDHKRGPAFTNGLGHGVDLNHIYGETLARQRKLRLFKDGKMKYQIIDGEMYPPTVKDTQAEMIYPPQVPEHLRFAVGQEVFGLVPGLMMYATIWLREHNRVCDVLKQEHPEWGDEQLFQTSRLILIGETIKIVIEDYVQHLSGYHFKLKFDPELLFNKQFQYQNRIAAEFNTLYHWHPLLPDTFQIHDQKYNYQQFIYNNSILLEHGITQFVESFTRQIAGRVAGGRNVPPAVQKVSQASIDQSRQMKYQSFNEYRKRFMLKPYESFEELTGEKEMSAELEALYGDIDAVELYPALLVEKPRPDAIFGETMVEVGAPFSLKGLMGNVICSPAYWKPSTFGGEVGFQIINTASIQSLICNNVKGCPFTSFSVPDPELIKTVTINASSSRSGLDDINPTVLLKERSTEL
Procedure: as §3

SMILES | IC50 (ovine COX-1) [µM] | IC50 [1] [µM] | IC50 (HCT116 cells) [µM] | IC50 (HT29 cells) [µM] | Mean oedema thickness 1h [2] [mm] | Mean oedema thickness 2h [2] [mm] | Mean oedema thickness 3h [2] [mm] | Mean oedema thickness 4h [2] [mm] | Mean oedema thickness 5h [2] [mm] | Mean oedema thickness 24h [2] [mm] | Mean oedema thickness 0h [2] [mm] | Average oedema inhibition% [2] [%] | IC50 [3] [µM] | IC50 (HCA7 cells) [µM] | Average Ulcer number [4] | Lesion Incidence (%) [4] [%] | Number of rats with ulcer [4] | IC50 (human recombinant COX-2) [µM] | Selectivity Index (SI) (human recombinant COX-2) | melting point [°C] | also measured
CN1c2ccccc2C(=O)N(NC(=O)Cc2c[nH]c3ccccc23)C1c1ccc(Cl)cc1 (stereo not shown) [4a, N-(2-(4-chlorophenyl)-1-methyl-4-oxo-1,4-dihydroquinazolin-3(2H)-yl)-2-(1H-indol-3-yl)acetamide] | 12.68 ± 0.11 | 29.7 ± 1.07 | 75.35 ± 0.1 | 15.42 ± 0.06 | 2.67 ± 0.24 | 2.90 ± 0.33 | 2.14 ± 0.25 | 2.04 ± 0.24 | 1.39 ± 0.06 | 0.54 ± 0.21 | 0.00 ± 0.00 | 33.40 | 31.5 ± 1.08 | 137.3 ± 0.08 | 1.6 | 60 | 3 | 0.04 ± 0.08 | 317.00 |  | 
O=C(CSc1nc2ccccc2c(=O)n1NC(=O)Cc1ccccc1)NNC(=O)c1ccccc1 [14c, N-(2-((2-(2-benzoylhydrazinyl)-2-oxoethyl)thio)-4-oxoquinazolin-3(4H)-yl)-2-phenylacetamide] | 15.4 ± 0.17 | 16.2 ± 1.3 | > 150 | > 150 | 3.02 ± 0.35 | 2.89 ± 0.13 | 2.42 ± 0.18 | 2.37 ± 0.19 | 2.34 ± 0.23 | 0.57 ± 0.09 | 0.00 ± 0.00 | 31.86 | 13 ± 1.36 | > 150 | 0.8 | 40 | 2 | 0.04 | 359.74 | 235 to 240 | Ulcer Index (UI) [4]: 5.3
CN1c2ccccc2C(=O)N(NC(=O)Cc2c[nH]c3ccccc23)C1c1ccc([N+](=O)[O-])cc1 (stereo not shown) [4b, 2-(1 h-indol-3-yl)-N-(1-methyl-2-(4-nitrophenyl)-4-oxo-1,4dihydroquinazolin-3(2H)-yl)acetamide] | 6.93 ± 0.15 | 24.5 ± 2.06 | > 150 | 66.67 ± 0.07 | 1.39 ± 0.09 | 1.89 ± 0.25 | 1.70 ± 0.17 | 1.14 ± 0.22 | 1.42 ± 0.28 | 0.16 ± 0.08 | 0.00 ± 0.00 | 49.47 | 32.2 ± 1.32 | > 150 | 0.8 | 20 | 1 | 0.07 | 99.00 | 239 to 243 | Ulcer Index (UI) [4]: 3
